{"source": "patent US7067476B2", "about": "“Peptide derivative, and pharmaceutically acceptable salt thereof, process for producing the same, and use thereof” (priority 2001, dated 2006)", "key": {"Lys-gingipain (KGP)": {"target": "Lys-gingipain (KGP) (Porphyromonas gingivalis, UniProt B2RLK2)", "test": "Inhibitory activity against Lys-gingipain (KGP), substrate Cbz-His-Glu-Lys-MCA", "format": "biochemical", "conditions": "read-out: Enzyme inhibitory activity (%) KGP", "experimental": "(§1) The inhibitory activity against Lys-gingipain (KGP) was measured by the method of Abe et al. (Journal Biochemistry, 1998, Vol. 123, 305–312) using Cbz-His-Glu-Lys-MCA as a substrate. The inhibitory activity against Arg-gingipain (RGP) was measured by the method of Kadowaki et al. (Journal Biological Chemistry, 1994, Vol. 269, 21371–21378) using Cbz-Phe-Arg-MCA as a substrate. More specifically, the measurements were carried out in the following manner: 100 μl of 50 mM L-cystein, 200 μl of a 0.1 M sodium phosphate buffer solution (pH 7.5), 20 μl of 12.3 nM KGP or RGP solution containing 0.05% “Brij35” (a tradename, product of Aldrich, polyoxyethylene(23) lauryl ether), 80 μl of distilled water and 100 μl of a dimethyl sulfoxide solution of a compound according to the invention were mixed and preincubated at 37° C. for 5 minutes. Thereafter, 500 μl of a 0.1% dimethyl sulfoxide solution containing 20 μM Cbz-His-Glu-Lys-MCA (for KGP) or Cbz-Phe-Arg-MCA (for RGP) was added, followed by incubation at 40° C. for 10 minutes. An acetic acid buffer solution (pH 5.0) containing 10 mM iodoacetamide was then added to stop the enzyme reaction. The fluorescence intensity (F) at 460 nm upon excitation at 380 nm was measured."}, "Arg-gingipain (RGP)": {"tested_on": "Arg-gingipain (RGP)", "test": "Inhibitory activity against Arg-gingipain (RGP), substrate Cbz-Phe-Arg-MCA", "format": "biochemical, Porphyromonas gingivalis", "experimental": "as §1"}}}
{"smiles": "Cl.NCCCC[C@H](NC(=O)[C@H](CCC(=O)O)NC(=O)OCc1ccccc1)C(=O)C(=O)N[C@@H](CCCNC(N)=N[N+](=O)[O-])C(=O)C(=O)NCCc1ccccc1", "note": "[Example 3]", "values": [{"measurement": "inhibition at 1 µM", "setting": "Lys-gingipain (KGP)", "result": 99.9, "unit": "%"}, {"measurement": "inhibition at 10 µM", "setting": "Lys-gingipain (KGP)", "result": 99.9, "unit": "%"}, {"measurement": "inhibition at 100 µM", "setting": "Lys-gingipain (KGP)", "result": 100, "unit": "%"}, {"measurement": "Enzyme inhibitory activity (%) RGP", "setting": "Arg-gingipain (RGP); concentration 10^−4 mol/l", "result": 99.4, "unit": "%"}, {"measurement": "Enzyme inhibitory activity (%) RGP", "setting": "Arg-gingipain (RGP); concentration 10^−5 mol/l", "result": 96.8, "unit": "%"}, {"measurement": "Enzyme inhibitory activity (%) RGP", "setting": "Arg-gingipain (RGP); concentration 10^−6 mol/l", "result": 81.1, "unit": "%"}]}
